Patent US20250059187A1, “COVALENTLY BINDING INHIBITORS OF G12S, G12D AND/OR G12E MUTANTS OF K-RAS GTPASE” (The Regents of the University of California, priority 2021, published 2025)

Assays:
wild type K-Ras = biological target: T1, wild type K-Ras (Homo sapiens, UniProt P01116); assay: Covalent modification of recombinant wild-type K-Ras by whole-protein mass spectrometry; type: binding; conditions: 10 μM, 23° C., after 1 h
T1 construct: human K-Ras (wildtype, aa 1-169); 6xHis tag + TEV cleavage site (N, cleaved yes); made in house; host or cells: E. coli BL21(DE3)

K-Ras G12D [1] = biological target: T2, K-Ras G12D (Homo sapiens, UniProt P01116, G12D); assay: Covalent modification of recombinant K-Ras(G12D) by whole-protein mass spectrometry; type: binding; conditions: 10 μM, 23° C.
T2 construct: human K-Ras (G12D, aa 1-169); 6xHis tag + TEV cleavage site (N, cleaved yes); made in house; host or cells: E. coli BL21(DE3)
Experimental: (§1) Test compounds were prepared as 100× stock solutions in DMSO. K-Ras proteins were diluted with SEC Buffer (20 mM HEPES 7.5, 150 mM NaCl, 1 mM MgCl2) to 400 nM or 1 μM. In a typical reaction, 0.5 μL 100× compound stock was mixed with 50 μL diluted K-Ras protein, and the resulting mixture was incubated for the desired amount of time. The extent of modification was assessed by electrospray mass spectrometry using a Waters Xevo G2-XS system equipped with an Acquity UPLC BEH C4 1.7 μm column. The mobile phase was a linear gradient of 5-95% acetonitrile/water+0.05% formic acid. For kinetic measurements, a 2× compound solution was first prepared in SEC Buffer, which was then mixed with 400 nM K-Ras(G12D) protein at 1:1 (v/v) ratio. Injection time stamps were used to calculate elapsed time.

K-Ras(G13D) = biological target: T3, K-Ras(G13D) (Homo sapiens, UniProt P01116, G13D); assay: Covalent modification of recombinant K-Ras(G13D) by whole-protein mass spectrometry; type: binding; conditions: 10 μM, 23° C., after 1 h
T3 construct: human K-Ras (G13D, aa 1-169); 6xHis tag + TEV cleavage site (N, cleaved yes); made in house; host or cells: E. coli BL21(DE3)
Experimental: as §1

K-Ras G12E = biological target: T4, K-Ras G12E (Homo sapiens, UniProt P01116, G12E); assay: Covalent modification of recombinant K-Ras(G12E) by whole-protein mass spectrometry; type: binding; conditions: 10 μM, 23° C.
T4 construct: human K-Ras (G12E, aa 1-169); 6xHis tag + TEV cleavage site (N, cleaved yes); made in house; host or cells: E. coli BL21(DE3)
Experimental: as §1

K-Ras G12D [2] = biological target: T2, K-Ras G12D; assay: Differential scanning fluorimetry of K-Ras(G12D) and its covalent adducts; type: binding
Experimental: The protein of interest was diluted with SEC Buffer [20 mM HEPES 7.5, 150 mM NaCl, 1 mM MgCl2] to 8 μM. This solution was dispensed into wells of a white 96-well PCR plate in triplicate (25 μL/well). Fluorescence was measured at 0.5-° C. temperature intervals every 30 s from 25° C. to 95° C. on a Bio-Rad CFX96 qPCR system using the FRET setting. Each data set was normalized to the highest fluorescence and the normalized fluorescence reading was plotted against temperature in GraphPad Prism 8.0. Tm values were determined as the temperature(s) corresponding to the maximum(ma) of the first derivative of the curve.

[3] = biological target: T5, interaction between Raf-RBD and K-Ras(G12D) (Homo sapiens, UniProt P01116, G12D); assay: Time-resolved fluorescence energy transfer assay, Raf-RBD and K-Ras(G12D); type: biochemical; conditions: dose-dependent
T5 construct: human K-Ras (G12D, aa 1-169); 6xHis tag + TEV cleavage site (N); made in house; host or cells: E. coli BL21(DE3) for K-Ras

[4] = biological target: T6, interaction between Raf-RBD and wildtype K-Ras (Homo sapiens, UniProt P01116); assay: Time-resolved fluorescence energy transfer assay, Raf-RBD and wildtype K-Ras; type: biochemical
T6 construct: human K-Ras (wildtype, aa 1-169); 6xHis tag + TEV cleavage site (N); made in house; host or cells: E. coli BL21(DE3) for K-Ras

[5] = biological target: T7, Raf-RBD / K-Ras(G12D)·GppNHp (Homo sapiens, UniProt P01116, G12D); assay: Biolayer interferometry, Raf-RBD binding of the K-Ras(G12D)·GppNHp adduct; conditions: compared to unmodified K-Ras(G12D)·GppNHp
T7 construct: human K-Ras (G12D, aa 1-169); 6xHis tag + TEV cleavage site (N); made in house; host or cells: E. coli BL21(DE3) for K-Ras

K-Ras G12D [6] = biological target: T2, K-Ras G12D; assay: Stability of the adduct between K-Ras(G12D) and the compound
[7] = test system: KRAS G12D mutation cancer cell lines; assay: Growth inhibition of KRAS G12D cancer cell lines; type: cell-based
Experimental: Cells were seeded into 96-well white flat bottom plates (1,000 cells/well) (Corning) and incubated overnight. Cells were treated with the indicated compounds in a nine-point threefold dilution series (100 μL final volume) and incubated for 72 h. Cell viability was assessed using a commercial CellTiter-Glo (CTG) luminescence-based assay (Promega). Briefly, the 96-well plates were equilibrated to room temperature before the addition of diluted CTG reagent […] (1:4 CTG reagent:PBS). Plates were placed on an orbital shaker for 30 min before recording luminescence using a Spark 20M (Tecan) plate reader.

K-Ras(G12S) = K-Ras(G12S) (Homo sapiens, UniProt P01116, G12S); assay: Covalent modification of recombinant K-Ras(G12S) by whole-protein mass spectrometry; type: binding; design: human K-Ras (G12S, aa 1-169); 6xHis tag + TEV cleavage site (N, cleaved yes); made in house; host or cells: E. coli BL21(DE3); conditions: 10 μM compound, 23° C.
In short: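 Recombinant K-Ras diluted to 400 nM or 1 μM in 20 mM HEPES pH 7.5, 150 mM NaCl, 1 mM MgCl2 and incubated with compound added from 100× DMSO stock. Modification extent measured by electrospray whole-protein mass spectrometry; kinetics used 1:1 mixing with 400 nM protein and injection time stamps for elapsed time.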

## C#Cc1cccc2cccc(-c3ncc4c(N5C[C@H]6CC[C@@H](C5)N6C(=O)C5CC(=O)O5)nc(OCC56CCCN5CCC6)nc4c3F)c12 (mixture of isomers) [Compound 1]
Wild type K-Ras
  modification of K-Ras(wildtype)·GDP: no detectable modification
K-Ras G12D [1]
  activity against GppNHp-bound K-Ras(G12D): also active against the GppNHp-bound K-Ras(G12D)
  time to full modification of K-Ras(G12D)·GDP: less than 15 minutes
K-Ras(G13D)
  modification of K-Ras(G13D)·GDP: 6.5±0.3%
K-Ras G12E
  reactivity with K-Ras(G12E)·GDP: markedly reduced reactivity
K-Ras G12D [2]; GDP state
  ΔTm of K-Ras(G12D)·GDP on covalent modification: +10.3 °C
K-Ras G12D [2]; GppNHp state
  ΔTm of K-Ras(G12D)·GppNHp on covalent modification: +2.5 °C
[3]
  interaction between Raf-RBD and K-Ras(G12D): inhibited the interaction between Raf-RBD and K-Ras(G12D)
[4]
  interaction between Raf-RBD and wildtype K-Ras: not wildtype K-Ras
[5]
  binding of the K-Ras(G12D)·GppNHp adduct to Raf-RBD: substantially decreased binding to Raf-RBD
K-Ras G12D [6]
  stability of the K-Ras(G12D) adduct over pH: stable over a range of pH (5.0-8.5)
K-Ras G12D [6]; 1 mM DTT, 23° C.
  stability of the K-Ras(G12D) adduct with DTT: did not degrade in the presence of 1 mM DTT
[7]
  growth of KRAS G12D cancer cell lines: inhibited growth of KRAS^G12D cancer cell lines
K-Ras(G12S)
  covalent reaction with K-Ras(G12S)·GDP: did not react with K-Ras(G12S)·GDP
